# Assay results from ChEMBL document CHEMBL5108056, “Discovery of Isoform-Selective Akt3 Degraders Overcoming Osimertinib-Induced Resistance in Non-Small Cell Lung Cancer Cells” (J Med Chem, 2022).
# Active and inactive are the calls of the source. The rule behind the calls is not given here.
# Experiments:
# [1] = target: Epidermal growth factor receptor (Homo sapiens, UniProt P00533); assay: Inhibition of EGFR in human NCI-H1975 cells; assay type: cell-based
# [2] = tested on: NCI-H1975; assay: In vivo antitumor activity against human osimertinib resistant NCI-H1975 cells xenografted in NOD-SCID mouse assessed as tumor growth inhibition at 10 mg/kg, ip qd administered every 3 days for 5 weeks relative to control; assay type: functional, organism-based
# [3] = target: T1, RAC-gamma serine/threonine-protein kinase (Homo sapiens, UniProt Q9Y243); assay: Induction of AKT3 degradation in human osimertinib resistant NCI-H1975 cells assessed as reduction in AKT3 protein level incubated for 24 hrs by Western blot analysis; assay type: cell-based; details: dose 1.6-1000 nM, DDE = dose-dependent effect
# [4] = target: T1, RAC-gamma serine/threonine-protein kinase; assay: Induction of AKT3 degradation in human HCC827 cells assessed as reduction in AKT3 protein level incubated for 24 hrs by Western blot analysis; assay type: cell-based; details: dose 1.6-1000 nM, DDE = dose-dependent effect
# [5] = tested on: PC-9; assay: In vivo antitumor activity against human PC-9 cells xenografted in NOD-SCID mouse assessed as tumor growth inhibition at 20 mg/kg, ip qd administered once every 2 days for 28 days relative to control; assay type: functional; details: PC-9, 672 h, time 28 day, read-out: TGI
# [6] = target: T1, RAC-gamma serine/threonine-protein kinase; assay: Induction of AKT3 degradation in human NCI-H460 cells assessed as reduction in AKT3 protein level incubated for 24 hrs by Western blot analysis; assay type: cell-based; details: dose 1.6-1000 nM, DDE = dose-dependent effect
# [7] = tested on: NCI-H1975; assay: In vivo induction of AKT3 degradation in human osimertinib resistant cells xenografted in NOD-SCID mouse assessed as reduction in AKT3 level in tumor tissue at 10 to 40 mg/kg, ip qd administered every 3 days for 5 weeks by Western blot analysis; assay type: functional, organism-based; details: dose 10-40 mg/kg
# [8] = target: T1, RAC-gamma serine/threonine-protein kinase; assay: Induction of AKT3 degradation in human NCI-H1975 cells assessed as reduction in AKT3 protein level incubated for 24 hrs under serum free medium by Western blot analysis; assay type: cell-based
# [9] = Toxicity in NOD-SCID mouse xenografted with human PC-9 cells assessed as change in body weight at 20 mg/kg, ip qd administered once every 2 days for 28 days; assay type: organism-based; details: in vivo, 672 h, time 28 day
# [10] = tested on: NCI-H1975; assay: In vivo antitumor activity against human osimertinib resistant NCI-H1975 cells xenografted in NOD-SCID mouse assessed as tumor growth inhibition at 20 mg/kg, ip qd administered every 3 days for 5 weeks relative to control; assay type: functional, organism-based
# [11] = target: T1, RAC-gamma serine/threonine-protein kinase; assay: Induction of AKT3 degradation in human osimertinib resistant NCI-H1975 cells assessed as increase in AKT3 ubiquitination at 100 nM incubated for 24 hrs in the presence of proteosome inhibitor MG132 by immunoprecipitation analysis; assay type: cell-based
# [12] = target: T1, RAC-gamma serine/threonine-protein kinase; assay: Induction of AKT3 degradation in human osimertinib resistant NCI-H1975 cells assessed as increase in AKT3 degradation at 100 nM incubated for 24 hrs in presence of cycloheximide; assay type: cell-based
# [13] = target: T1, RAC-gamma serine/threonine-protein kinase; assay: Induction of AKT3 degradation in human osimertinib resistant NCI-H1975 cells by gel fluorescence and Coomassie bright blue staining based analysis; assay type: cell-based
# [14] = target: T1, RAC-gamma serine/threonine-protein kinase; assay: Binding affinity to full length N-terminal His6-sumo tagged AKT3 (unknown origin) expressed Escherichia coli BL21 (DE3) cells incubated for 2 hrs by pull-down/ LC-MS analysis
# [15] = target: T1, RAC-gamma serine/threonine-protein kinase; assay: Induction of AKT3 degradation in human PC-9 cells assessed as reduction in AKT3 protein level incubated for 24 hrs by Western blot analysis; assay type: cell-based; details: dose 1.6-1000 nM, DDE = dose-dependent effect
# [16] = target: T2, RAC-alpha serine/threonine-protein kinase (Homo sapiens, UniProt P31749); assay: Induction of AKT1 degradation in human NCI-H1975 cells assessed as reduction in AKT1 protein level incubated for 24 hrs under serum free medium by Western blot analysis; assay type: cell-based
# [17] = tested on: NCI-H1975; assay: In vivo antitumor activity against human osimertinib resistant NCI-H1975 cells xenografted in NOD-SCID mouse assessed as tumor growth inhibition at 40 mg/kg, ip qd administered every 3 days for 5 weeks relative to control; assay type: functional, organism-based
# [18] = target: T1, RAC-gamma serine/threonine-protein kinase; assay: Induction of AKT3 degradation in human NCI-H1975 cells assessed as reduction in AKT3 protein level incubated for 24 hrs by Western blot analysis; assay type: cell-based; details: dose 1.6-1000 nM, DDE = dose-dependent effect
# [19] = tested on: NCI-H1975; assay: Antiproliferative activity against human osimertinib resistant NCI-H1975 cells assessed as reduction in cell viability measured after 24 hrs by CCK-8 assay; assay type: functional, cell-based; details: NCI-H1975, 24 h
# [20] = target: T1, RAC-gamma serine/threonine-protein kinase; assay: Induction of AKT3 degradation in human NCI-H1975 cells assessed as reduction in AKT3 protein level at 1000 nM incubated for 24 hrs under serum free medium by Western blot analysis relative to control; assay type: cell-based
# [21] = target: T1, RAC-gamma serine/threonine-protein kinase; assay: Induction of endogenous AKT3 degradation in human osimertinib resistant NCI-H1975 cells; assay type: cell-based
# [22] = target: T1, RAC-gamma serine/threonine-protein kinase; assay: Induction of AKT3 degradation in human A549 cells assessed as reduction in AKT3 protein level incubated for 24 hrs by Western blot analysis; assay type: cell-based; details: dose 1.6-1000 nM, DDE = dose-dependent effect
# [23] = Toxicity in NOD-SCID mouse xenografted with human osimertinib resistant NCI-H1975 cells assessed as change in body weight at 10 to 40 mg/kg, […] administered every 3 days for 5 weeks; assay type: organism-based; details: in vivo, 840 h, dose 10-40 mg/kg
# [24] = target: T1, RAC-gamma serine/threonine-protein kinase; assay: Binding affinity to AKT3 in human NCI-H1975 cells assessed as increase in thermal stability at 2 uM by thermal shift assay; assay type: cell-based
# [25] = target: RAC-beta serine/threonine-protein kinase (Homo sapiens, UniProt P31751); assay: Induction of AKT2 degradation in human NCI-H1975 cells assessed as reduction in AKT2 protein level incubated for 24 hrs under serum free medium by Western blot analysis; assay type: cell-based
# [26] = target: T1, RAC-gamma serine/threonine-protein kinase; assay: Induction of AKT3 degradation in human NCI-H1299 cells assessed as reduction in AKT3 protein level incubated for 24 hrs by Western blot analysis; assay type: cell-based; details: dose 1.6-1000 nM, DDE = dose-dependent effect
# [27] = target: T1, RAC-gamma serine/threonine-protein kinase; assay: Binding affinity to full length N-terminal His6-sumo tagged AKT3 (unknown origin) expressed Escherichia coli BL21 (DE3) cells by pull-down/ Western blot analysis
# [28] = target: Epidermal growth factor receptor (Homo sapiens, UniProt P00533, T790M); assay: Inhibition of EGFR T790M mutant in human NCI-H1975 cells incubated for 24 hrs under serum free medium by Western blot analysis; assay type: cell-based
# [29] = target: T2, RAC-alpha serine/threonine-protein kinase; assay: Induction of AKT1 degradation in human NCI-H1975 cells assessed as reduction in AKT1 protein level at 1000 nM incubated for 24 hrs under serum free medium by Western blot analysis relative to control; assay type: cell-based
# T2 sequence (P31749 whole entry): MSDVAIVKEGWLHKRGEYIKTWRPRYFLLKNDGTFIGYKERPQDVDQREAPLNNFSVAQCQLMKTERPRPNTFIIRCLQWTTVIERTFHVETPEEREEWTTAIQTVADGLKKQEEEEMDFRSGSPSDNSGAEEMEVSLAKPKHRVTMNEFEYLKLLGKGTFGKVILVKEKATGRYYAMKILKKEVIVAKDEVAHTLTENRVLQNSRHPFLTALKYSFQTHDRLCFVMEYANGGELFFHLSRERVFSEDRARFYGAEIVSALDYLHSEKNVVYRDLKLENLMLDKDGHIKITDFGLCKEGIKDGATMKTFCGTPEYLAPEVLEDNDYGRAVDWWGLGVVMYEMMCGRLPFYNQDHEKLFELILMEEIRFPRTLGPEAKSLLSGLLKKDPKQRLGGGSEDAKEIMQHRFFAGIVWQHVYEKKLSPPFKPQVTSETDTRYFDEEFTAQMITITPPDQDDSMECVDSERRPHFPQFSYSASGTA
# T1 sequence (Q9Y243 whole entry): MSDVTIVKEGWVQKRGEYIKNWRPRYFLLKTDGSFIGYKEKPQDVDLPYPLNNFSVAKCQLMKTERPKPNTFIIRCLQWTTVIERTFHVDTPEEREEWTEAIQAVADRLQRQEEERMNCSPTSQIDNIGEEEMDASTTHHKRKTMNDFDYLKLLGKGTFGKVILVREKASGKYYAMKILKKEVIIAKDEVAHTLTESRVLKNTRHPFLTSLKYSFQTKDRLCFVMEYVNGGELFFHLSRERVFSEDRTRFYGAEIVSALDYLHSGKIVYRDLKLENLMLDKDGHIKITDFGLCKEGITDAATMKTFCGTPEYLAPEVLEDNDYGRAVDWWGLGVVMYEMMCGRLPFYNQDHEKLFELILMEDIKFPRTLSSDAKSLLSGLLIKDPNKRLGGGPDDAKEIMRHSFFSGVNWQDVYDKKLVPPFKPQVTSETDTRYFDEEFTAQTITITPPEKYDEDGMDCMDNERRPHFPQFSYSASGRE
# Chain of RAC-beta serine/threonine-protein kinase (P31751 whole entry): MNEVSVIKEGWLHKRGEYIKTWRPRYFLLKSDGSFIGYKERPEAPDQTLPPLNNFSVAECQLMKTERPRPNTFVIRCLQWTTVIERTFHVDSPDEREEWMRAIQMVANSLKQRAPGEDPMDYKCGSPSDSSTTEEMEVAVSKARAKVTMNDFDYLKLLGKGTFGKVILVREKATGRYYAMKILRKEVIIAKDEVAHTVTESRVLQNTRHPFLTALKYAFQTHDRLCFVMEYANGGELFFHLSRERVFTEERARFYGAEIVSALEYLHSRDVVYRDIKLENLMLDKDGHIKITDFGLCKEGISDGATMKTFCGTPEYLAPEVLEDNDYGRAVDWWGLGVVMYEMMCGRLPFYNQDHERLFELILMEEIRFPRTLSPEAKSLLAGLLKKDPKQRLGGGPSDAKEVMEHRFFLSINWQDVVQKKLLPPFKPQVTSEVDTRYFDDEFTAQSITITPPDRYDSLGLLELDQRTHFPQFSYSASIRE
# Chain of Epidermal growth factor receptor (Homo sapiens, UniProt P00533) (P00533 whole entry): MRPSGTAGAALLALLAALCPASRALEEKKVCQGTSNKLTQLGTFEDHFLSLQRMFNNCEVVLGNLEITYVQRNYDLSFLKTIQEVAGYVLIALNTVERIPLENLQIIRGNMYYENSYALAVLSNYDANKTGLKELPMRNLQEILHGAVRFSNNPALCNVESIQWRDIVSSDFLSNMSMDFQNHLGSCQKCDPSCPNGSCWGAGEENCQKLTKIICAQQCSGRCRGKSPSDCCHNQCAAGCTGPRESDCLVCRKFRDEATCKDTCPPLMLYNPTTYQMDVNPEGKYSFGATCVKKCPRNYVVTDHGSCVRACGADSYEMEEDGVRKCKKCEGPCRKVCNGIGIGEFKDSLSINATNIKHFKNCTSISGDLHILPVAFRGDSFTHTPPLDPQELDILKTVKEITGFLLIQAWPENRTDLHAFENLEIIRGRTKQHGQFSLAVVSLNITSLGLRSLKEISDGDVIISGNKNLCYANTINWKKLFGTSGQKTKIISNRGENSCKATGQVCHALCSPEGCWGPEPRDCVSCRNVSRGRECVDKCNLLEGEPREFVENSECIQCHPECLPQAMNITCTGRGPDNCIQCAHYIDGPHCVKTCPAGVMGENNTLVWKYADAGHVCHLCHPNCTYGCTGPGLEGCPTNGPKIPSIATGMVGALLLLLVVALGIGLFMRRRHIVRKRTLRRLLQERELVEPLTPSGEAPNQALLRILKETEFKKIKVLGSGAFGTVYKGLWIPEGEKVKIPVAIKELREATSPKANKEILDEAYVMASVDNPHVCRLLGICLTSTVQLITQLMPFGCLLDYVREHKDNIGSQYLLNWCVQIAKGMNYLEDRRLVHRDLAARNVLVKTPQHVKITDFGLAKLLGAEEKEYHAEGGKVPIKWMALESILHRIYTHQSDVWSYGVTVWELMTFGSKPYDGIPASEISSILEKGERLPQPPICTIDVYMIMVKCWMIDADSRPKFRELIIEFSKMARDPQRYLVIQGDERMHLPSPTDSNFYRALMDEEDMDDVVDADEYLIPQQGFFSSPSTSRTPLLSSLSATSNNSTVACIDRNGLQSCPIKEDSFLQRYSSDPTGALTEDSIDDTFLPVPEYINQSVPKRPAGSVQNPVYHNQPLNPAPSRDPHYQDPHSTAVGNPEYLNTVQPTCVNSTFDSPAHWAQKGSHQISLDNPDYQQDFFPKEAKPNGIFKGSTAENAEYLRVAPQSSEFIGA
# Chain of Epidermal growth factor receptor (Homo sapiens, UniProt P00533, T790M) (P00533 25-1210 T790M limits assumed): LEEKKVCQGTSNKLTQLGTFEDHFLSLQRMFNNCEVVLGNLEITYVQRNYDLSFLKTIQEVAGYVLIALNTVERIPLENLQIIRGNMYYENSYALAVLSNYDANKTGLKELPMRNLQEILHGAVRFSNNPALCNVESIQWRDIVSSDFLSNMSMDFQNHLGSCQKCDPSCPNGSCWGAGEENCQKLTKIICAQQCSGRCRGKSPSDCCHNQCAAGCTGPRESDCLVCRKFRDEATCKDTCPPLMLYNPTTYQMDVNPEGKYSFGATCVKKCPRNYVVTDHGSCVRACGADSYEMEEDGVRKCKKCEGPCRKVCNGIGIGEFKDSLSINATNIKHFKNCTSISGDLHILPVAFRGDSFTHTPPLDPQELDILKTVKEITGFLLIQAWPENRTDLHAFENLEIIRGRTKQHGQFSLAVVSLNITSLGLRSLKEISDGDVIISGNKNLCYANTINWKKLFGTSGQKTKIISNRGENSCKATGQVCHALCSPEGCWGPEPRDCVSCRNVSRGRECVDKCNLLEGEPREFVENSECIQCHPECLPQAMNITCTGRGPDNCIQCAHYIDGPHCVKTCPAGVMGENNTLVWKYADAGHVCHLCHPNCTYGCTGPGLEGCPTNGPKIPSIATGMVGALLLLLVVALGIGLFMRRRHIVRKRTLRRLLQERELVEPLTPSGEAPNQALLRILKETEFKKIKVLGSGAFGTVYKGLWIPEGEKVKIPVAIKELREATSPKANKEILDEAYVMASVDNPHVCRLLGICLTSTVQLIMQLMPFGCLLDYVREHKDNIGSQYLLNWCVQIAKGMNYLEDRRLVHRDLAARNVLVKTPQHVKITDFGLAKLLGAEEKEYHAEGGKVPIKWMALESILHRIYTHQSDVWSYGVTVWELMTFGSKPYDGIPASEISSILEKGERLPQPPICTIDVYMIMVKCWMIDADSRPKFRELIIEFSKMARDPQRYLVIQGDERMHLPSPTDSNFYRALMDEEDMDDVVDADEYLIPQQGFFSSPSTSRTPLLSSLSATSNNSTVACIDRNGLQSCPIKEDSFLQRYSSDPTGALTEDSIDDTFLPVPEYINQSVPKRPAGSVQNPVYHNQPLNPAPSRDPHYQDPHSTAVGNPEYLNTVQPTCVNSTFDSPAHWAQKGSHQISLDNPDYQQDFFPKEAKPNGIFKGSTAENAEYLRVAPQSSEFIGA
smiles,measurement,setting,value
COc1cc(N2CCN(CCCCCCCCCCCCNC(=O)CC34CC5CC(CC(C5)C3)C4)CC2)ccc1Nc1ncc2c(C)cc(=O)n(-c3cccc(NC(=O)C4CC4)c3)c2n1,EC50,[1],579 nM
same,Activity,[2],Active
same,Activity,[3],Dde
same,Activity,[4],Dde
same,inhibition in vivo at 20 mg/kg,[5],75%
same,Activity,[6],Dde
same,Activity,[7],Active
same,EC50,[8],13 nM
same,Activity,[9],Non-Toxic
same,Activity,[10],Active
same,Activity,[11],Active
same,Activity,[12],Active
same,Activity,[13],Active
same,Activity,[14],Active
same,Activity,[15],Dde
same,EC50,[16],> 1000 nM
same,Activity,[17],Active
same,Activity,[18],Dde
same,IC50,[19],7 nM
same,Emax,[20],88%
same,Activity,[21],Active
same,Activity,[22],Dde
same,Activity,[23],Non-Toxic
same,Activity,[24],Active
same,EC50,[25],> 1000 nM
same,Activity,[26],Dde
C#CCN(CCCCCCCCCCCCN1CCN(c2ccc(Nc3ncc4c(C)cc(=O)n(-c5cccc(NC(=O)C6CC6)c5)c4n3)c(OC)c2)CC1)C(=O)CC12CC3CC(CC(C3)C1)C2,Activity,[27],Active
same,Activity,[14],Active
COc1cc(N2CCN(CCCCCCCCCCCCNC(=O)CC34CC5CC(CC(C5)C3)C4)CC2)ccc1Nc1ncc2c(C)cc(=O)n(-c3cccc(NC(C)=O)c3)c2n1,EC50,[8],67 nM
same,EC50,[16],> 1000 nM
same,Emax,[20],68%
same,EC50,[25],> 1000 nM
CC(C)NC[C@@H](C(=O)N1CCN(c2ncnc3c2[C@H](C)C[C@H]3O)CC1)c1ccc(Cl)cc1 [IPATASERTIB],IC50,[19],> 20000 nM
C=CC(=O)Nc1cccc(-n2c(=O)cc(C)c3cnc(Nc4ccc(N5CCN(C(=O)CCCCCCCCCCCNC(=O)CC67CC8CC(CC(C8)C6)C7)CC5)cc4OC)nc32)c1,EC50,[8],> 1000 nM
same,EC50,[16],> 1000 nM
same,EC50,[25],> 1000 nM
C=CC(=O)Nc1ccc(-n2c(=O)cc(C)c3cnc(Nc4ccc(N5CCN(CCCCCCCCCCCCNC(=O)CC67CC8CC(CC(C8)C6)C7)CC5)cc4OC)nc32)cc1,EC50,[8],> 1000 nM
same,EC50,[16],> 1000 nM
same,EC50,[25],> 1000 nM
C[C@@H]1CC(O)c2ncnc(N3CCN(C(=O)[C@H](CNCCCCCCCCCCc4cccc5c4C(=O)N(C4CCC(=O)NC4=O)C5=O)c4ccc(Cl)cc4)CC3)c21 (mixture of isomers),IC50,[19],2420 nM
C=CC(=O)Nc1cccc(-n2c(=O)cc(C)c3cnc(Nc4ccc(N5CCN(CCCCCCCCCCCCNC(=O)CC67CC8CC(CC(C8)C6)C7)CC5)cc4OC)nc32)c1,EC50,[8],52 nM
same,EC50,[28],20.1 nM
same,EC50,[16],> 1000 nM
same,Emax,[20],73%
same,EC50,[25],> 1000 nM
C=CC(=O)Nc1cccc(-n2c(=O)cc(C)c3cnc(Nc4ccc(N5CCN(CCOCCOCCNC(=O)CC67CC8CC(CC(C8)C6)C7)CC5)cc4OC)nc32)c1,EC50,[8],564 nM
same,EC50,[16],300 nM
same,Emax,[20],55%
same,Emax,[29],55%
same,EC50,[25],> 1000 nM
COc1cc(N2CCN(CCCCCCCCCCCCNC(=O)CC34CC5CC(CC(C5)C3)C4)CC2)ccc1Nc1ncc2c(C)cc(=O)n(-c3cccc(NC(=O)C(C)(C)C)c3)c2n1,EC50,[8],57 nM
same,EC50,[16],> 1000 nM
same,Emax,[20],77%
same,EC50,[25],> 1000 nM
